Laboratory results from PMC9321043, “Synthesis, Structure–Activity Relationships, and Parasitological Profiling of Brussonol Derivatives as New Plasmodium falciparum Inhibitors” (Pharmaceuticals, 2022).

Key:
[1] = tested on: P. falciparum 3D7^r_MMV848 strain; assay: Resistance assessment, 3D7r-MMV848 strain; assay type: cell-based; details: Plasmodium falciparum
[2] = tested on: cytosolic Ca^2+ in P. falciparum; assay: [Ca2+]cyt measurements in isolated parasites loaded with Fluo-4AM; assay type: cell-based, Plasmodium falciparum
Procedure: One of the compounds identified in the structural similarity search was the cyclopiazonic acid (CPA) (Figure 8a). […] Because of that, brussonol activity on the modulation of the SERCA pump was investigated. To assess the effect of brussonol on calcium mobilization in P. falciparum intraerythrocytic stages, isolated parasites loaded with Fluo-4-AM were exposed to 10 μM brussonol in MOPS Ca^2+ buffer. […] To verify if the brussonol-elicited [Ca^2+]cyt increment originated from the endoplasmic reticulum (ER), targeting the PfSERCA pump, CPA was added before the addition of brussonol. […] In the brussonol-pretreated parasites, the addition of CPA still increased the cytosolic Ca^2 + level (30 ± 5 nM) (Figure 8d).
Isolated parasites were incubated for 1 h at 37 °C with 5 μM of Fluo-4AM in 1 mL MOPS buffer (116 mM NaCl, 5.4 mM KCl, 0.8 mM MgSO4, 5.5 mM D-glucose, 50 mM MOPS, and 2 mM CaCl2, pH 7.2), with 1 mM probenecid to minimize compartmentalization and extrusion of probe. The parasites were washed three times with the same buffer and transferred to a quartz cuvette. Intracellular calcium was measured continuously using a Hitachi F-7000 spectrofluorimeter (Tokyo, Japan) by measurement of the fluorescence (λex = 488 nm and λem = 530 nm) at 37 °C, under agitation. When indicated, 10 µM of cyclopiazonic acid (CPA) or 10 µM of brussonol were added to the cuvette. Maximal fluorescence (Fmax) was determined after the lysis of with digitonin 0.15% (m/v), and minimal fluorescence (Fmin) was determined by adding 25 mM EGTA in 3 M Tris, pH 8.8, until no further decrease in fluorescence was observed. The cytosolic calcium concentration ([Ca^2+]cyt) was calculated from the fluorescence data (F) using a Kd value of 345 nM using the formula:Ca^2 +cyt = 345 × [(F − Fmin)/(Fmax − F)]
The results (n = 2) were analyzed through One-Way ANOVA with Tukey post-test. All compounds described here were purchased from Sigma-Aldrich (verificar local).

[3] = tested on: hemozoin formation; assay: Hemozoin formation inhibition assay; assay type: biochemical; details: hemin 25 µM, pH 4.8, 4 h, one experiment in triplicate
Procedure: 2. Hemozoin Formation Inhibition Assay
The hemozoin formation inhibition assay was performed as described previously.12 Briefly, serial 1:3 dilutions, in a 96‐well plate, wit h brussonol were made in a final volume of 20 μL in a concentration 10 times higher than the final concentration of the assay. Secondly, 90 μ L of freshly prepared hemin (at a final concentration of 25 μM) solution in 1M NaOAc/HOAc buffer pH 4.8 were added followed by addition of 90 μ L of 5.4 mg/L Tween 20 solution freshly prepared. The plates were let to stand for 4 hours at 37 °C followed by resuspension with multichannel pippete and read at 415 and 630 nm using a SpectraMAX Plus 384 plate reader (Molecular Devices Corp., Sunnyvale, CA).
Due to the absence of enough compound, this experiment wa s performed only once, but with internal triplicate. Chloroquine (CQ) and pyrimethamine (PYR) were used as positive and negative control of inhibition, respectively.
Inhibition (%) = 100 – 100 x [(Aco ntro l – Asample) / (Acontrol - Amin)] Acontrol is the difference of the absorbance at 415 and 630 nm of the negative control (Hemin +, Tween 20 ‐, Compound ‐); Amin is the difference of the absorbance at 415 and 630 nm of the positive control (Hemin +, Tween 20 +, Compound ‐ ); Asample is the difference of the absorbance at 415 and 630 nm of the sample. The hemozoin formation inhibition assay was performed to evaluate if brussonol act inhibiting hemozoin formation in P. falciparum. CQ, which is a well‐known inhibitor of hemozoin […]
Figure S1. Hemozoin formation inhibition assay. Different concentrations of CQ (black triangles), PYR (red squares) and brussonol (blue circles) were incubated with heme in triplicates. Th e absorbance was recorded at 415/630 nm to determine the hemozoin formation inhibition. […]

[4] = tested on: P. falciparum K1 strain; assay: Resistance assessment, K1 strain; assay type: cell-based; details: Plasmodium falciparum
[5] = tested on: P. falciparum; assay: Speed-of-action assay; assay type: cell-based, Plasmodium falciparum
Procedure: The speed-of-action assay assesses the inhibitory activity of the tested compounds after 24, 48, and 72 h of drug exposure. […] Moreover, to confirm the speed-of-action, the morphological development of the parasite in parallel with the IC50 assessment was verified. The parasites in the negative control wells developed according to the expected timeline (Figure 5a). […] Brussonol caused parasite death within the first 24 h of incubation as observed for artesunate (Figure 5a).
In this method, three 96-well plates were prepared by adding 180 µL of the parasite’s inoculum with 0.5% parasitemia and 2% hematocrit. A serial dilution of the compounds was added to each plate; the starting concentration for brussonol was 6× IC50, while for artesunate and pyrimethamine (fast- and slow-acting controls, respectively) were 10× IC50. In addition, a positive and negative control, which corresponded to parasite cultures with no addition of inhibitor and non-parasitized erythrocytes, respectively, were used for the parasite’s control growth. Each plate was treated for a different period (24, 48, or 72 h), and the first two plates were washed twice with fresh medium to remove the inhibitor, followed by incubation of 48 and 24 h, respectively. […] A statistical analysis using a one-way ANOVA test was done to compare each time point using GraphPad Prism version 8.0.1 for Windows, GraphPad Software, San Diego, California USA, www.graphpad.com, accessed on 1 February 2022. In parallel, the morphological development of the parasite under the compounds’ pressure was assessed by adding the compounds tested at the highest concentration evaluated. Blood smears of each well were made and stained at time points 0, 24, 48, and 72 h.

CC(C)c1cc2c(c(O)c1O)C[C@@]13CCCC(C)(C)[C@@H]1C[C@@H]2O3 [Compound 1, brussonol]
IC50 [1]: 12 ± 3 µM | [Ca^2+]cyt rise after CPA pretreatment ([2]; 10 µM brussonol added after 10 µM CPA reached a plateau): 19 ± 8 nM | [Ca^2+]cyt rise ([2]; 10 µM compound alone, MOPS Ca^2+ buffer, relative to basal level): 19 ± 4 nM | hemozoin formation inhibition (in words) ([3]; listed as Brussonol): do not act inhibiting hemozoin formation | hemozoin formation inhibition (in words) ([3]; listed as brussonol): did not interfere with hemozoin polymerization | IC50 [4]: 6.6 ± 0.1 µM | speed of action ([5]; IC50 compared after 24, 48 and 72 h of drug exposure): fast-acting in vitro inhibition | time of parasite death (morphological development, pyknotic nuclei) ([5]; highest concentration evaluated, Giemsa smears at 0, 24, 48, 72 h): ≤ 24 h
